Measurements as given in ChEMBL document CHEMBL6114998, “Design, Synthesis, and Pharmacological Evaluation of Quinazoline and Quinoline Derivatives as Potent ENPP1 Inhibitors for Cancer Immunotherapy” (J Med Chem, 2025).
The source made the active and inactive calls. The rule behind the calls is not given here.

How the values were obtained:
[1] = molecular target: T1, Ectonucleotide pyrophosphatase/phosphodiesterase family member 1 (Homo sapiens, UniProt P22413); assay: Inhibition of recombinant human ENPP1 transfected in HEK293T cells using cGAMP as substrate at pH 7.5 measured after 3.5 hrs by luminescence based AMP-glo assay; format: cell-based
T1 sequence (P22413 whole entry): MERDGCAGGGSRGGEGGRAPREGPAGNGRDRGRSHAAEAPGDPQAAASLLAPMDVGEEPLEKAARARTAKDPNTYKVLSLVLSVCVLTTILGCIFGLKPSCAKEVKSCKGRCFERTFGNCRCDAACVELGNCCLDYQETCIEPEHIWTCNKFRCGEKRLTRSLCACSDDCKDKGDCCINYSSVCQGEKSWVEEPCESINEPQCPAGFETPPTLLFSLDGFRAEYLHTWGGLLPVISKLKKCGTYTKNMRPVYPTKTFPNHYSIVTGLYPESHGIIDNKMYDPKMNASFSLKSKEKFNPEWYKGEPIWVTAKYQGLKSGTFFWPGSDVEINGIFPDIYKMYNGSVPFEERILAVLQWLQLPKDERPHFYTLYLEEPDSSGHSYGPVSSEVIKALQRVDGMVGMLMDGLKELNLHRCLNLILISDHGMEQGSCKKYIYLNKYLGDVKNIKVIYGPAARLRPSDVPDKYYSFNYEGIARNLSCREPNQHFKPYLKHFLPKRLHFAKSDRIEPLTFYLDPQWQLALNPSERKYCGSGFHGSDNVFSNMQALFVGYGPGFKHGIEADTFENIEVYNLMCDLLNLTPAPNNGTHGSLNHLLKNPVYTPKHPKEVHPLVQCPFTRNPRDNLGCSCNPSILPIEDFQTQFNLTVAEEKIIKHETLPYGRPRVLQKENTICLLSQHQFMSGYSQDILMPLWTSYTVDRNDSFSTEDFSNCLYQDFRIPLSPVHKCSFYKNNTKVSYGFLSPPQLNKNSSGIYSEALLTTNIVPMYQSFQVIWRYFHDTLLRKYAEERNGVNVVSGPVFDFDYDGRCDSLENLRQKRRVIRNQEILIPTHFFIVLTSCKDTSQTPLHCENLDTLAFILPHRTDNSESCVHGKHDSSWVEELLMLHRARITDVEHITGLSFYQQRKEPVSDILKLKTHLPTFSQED

[2] = molecular target: T1, Ectonucleotide pyrophosphatase/phosphodiesterase family member 1; assay: Inhibition of ENPP1 in human MDA-MB-231 cells using p-NPh-5TMP as substrate at pH 9.5 measured after 60 mins; format: cell-based
[3] = Clearance in Sprague-Dawley rat at 10 mg/kg, iv measured upto 24 hrs by LC-MS/MS analysis; format: ADME, organism-based; details: in vivo
[4] = MRT (0 to t) in Sprague-Dawley rat at 10 mg/kg, iv measured upto 24 hrs by LC-MS/MS analysis; format: ADME, organism-based; details: in vivo
[5] = Apparent permeability across apical to basal side in human Caco-2 cells at 10 uM by LC-MS/MS analysis; format: ADME, cell-based
[6] = Apparent permeability across basal to apical side in human Caco-2 cells at 10 uM by LC-MS/MS analysis; format: ADME, cell-based
[7] = Efflux ratio of apparent permeability from basolateral to apical side over apical to basolateral side in human Caco-2 cells at 10 uM by LC-MS/MS analysis; format: ADME, cell-based
[8] = system: CT26; assay: Antitumor activity against mouse CT26 cells allografted in female BALB/c mouse assessed as tumor growth inhibition at 200 mg/kg QD, ip measured every 2 days for 12 days in presence of anti-PD-L1 antibody relative to control; format: functional; details: CT26, 288 h, time 12 day, read-out: TGI
[9] = Toxicity in female BALB/c mouse allografted with mouse CT26 cells assessed as change in body weight at 200 mg/kg QD, ip measured every 2 days for 12 days; format: organism-based; details: in vivo, 288 h, time 12 day
[10] = Toxicity in female BALB/c mouse allografted with mouse CT26 cells assessed as change in body weight at 200 mg/kg QD, ip in presence of anti-PD-L1 antibody measured every 2 days for 12 days; format: organism-based; details: in vivo, 288 h, time 12 day
[11] = system: CT26; assay: Antitumor activity against mouse CT26 cells allografted in female BALB/c mouse assessed as increase in M1-type macrophages in tumor tissue at 200 mg/kg QD, ip in presence of anti-PD-L1 antibody measured every 2 days for 12 days by immunohistochemical analysis; format: functional, organism-based; details: time 12.0 day
[12] = system: CT26; assay: Antitumor activity against mouse CT26 cells allografted in female BALB/c mouse assessed as decrease in M2-type macrophages in tumor tissue at 200 mg/kg QD, ip in presence of anti-PD-L1 antibody measured every 2 days for 12 days by immunohistochemical analysis; format: functional, organism-based; details: time 12.0 day
[13] = system: THP1-Dual KO-STING; assay: Cytotoxicity against human THP1-Dual KO-STING cells assessed as effect on cell viability at 1 uM followed by addition of conditioned medium containing 36 hrs compound pretreated human MDA-MB-231 cells measured after 24 hrs by celltiter-glo assay; format: functional, cell-based; details: time 60.0 hrs
[14] = system: THP1-Dual; assay: Cytotoxicity against human THP1-Dual cells assessed as effect on cell viability at 3 to 1000 nM followed by addition of conditioned medium containing 36 hrs compound pretreated human MDA-MB-231 cells measured after 24 hrs by celltiter-glo assay; format: functional, cell-based; details: dose 3-1000 nM, time 60.0 hrs
[15] = system: THP-1; assay: Activation of STING signalling pathway in human THP-1 cells assessed as increase in IFNB1 expression measured after 18 hrs in presence of cGAMP by qPCR analysis; format: cell-based; details: filed as activator, dose 3-1000 nM
[16] = species on record: Homo sapiens; assay: Inhibition of TLK (unknown origin) at 1 uM by KINOMEscan assay
[17] = species on record: Homo sapiens; assay: Inhibition of STE (unknown origin) at 1 uM by KINOMEscan assay
[18] = system: CT26; assay: Antitumor activity against mouse CT26 cells allografted in female BALB/c mouse assessed as increase in M1-type macrophages in tumor tissue at 200 mg/kg QD, ip measured every 2 days for 12 days by immunofluorescence analysis; format: functional, organism-based; details: time 12.0 day
[19] = system: CT26; assay: Antitumor activity against mouse CT26 cells allografted in female BALB/c mouse assessed as increase in CD8+T cells in tumor tissue at 200 mg/kg QD, ip measured every 2 days for 12 days by immunofluorescence analysis; format: functional, organism-based; details: time 12.0 day
[20] = system: CT26; assay: Antitumor activity against mouse CT26 cells allografted in female BALB/c mouse assessed as increase in M1-type macrophages in tumor tissue at 200 mg/kg QD, ip in presence of anti-PD-L1 antibody measured every 2 days for 12 days by immunofluorescence analysis; format: functional, organism-based; details: time 12.0 day
[21] = system: CT26; assay: Antitumor activity against mouse CT26 cells allografted in female BALB/c mouse assessed as decrease in M2-type macrophages in tumor tissue at 200 mg/kg QD, ip measured every 2 days for 12 days by immunofluorescence analysis; format: functional, organism-based; details: time 12.0 day
[22] = system: CT26; assay: Antitumor activity against mouse CT26 cells allografted in female BALB/c mouse assessed as decrease in M2-type macrophages in tumor tissue at 200 mg/kg QD, ip in presence of anti-PD-L1 antibody measured every 2 days for 12 days by immunofluorescence analysis; format: functional, organism-based; details: time 12.0 day

For COc1cccc2c(N3CCC(O)(CNS(N)(=O)=O)CC3)ncnc12, the IC50 [1] was 8.05 nM, the IC50 [2] was 1.53 nM and the clearance [3] was 84.5 mL/min/kg. It also gave an MRT last at 24 h [4] of 39.7 min, a Papp A→B at 10 µM [5] of 0.106 ×10⁻⁶ cm/s and a Papp B→A at 10 µM [6] of 2.13 ×10⁻⁶ cm/s. The efflux ratio at 10 µM [7] was 20.1, the inhibition in vivo at 200 mg/kg [8] was 64.6% and the Activity [9] was “Non-toxic”. For the same compound, the Activity [10] was “Non-toxic”, the Activity [11] was “Active” and the Activity [12] was “Active”. For the same compound, the Activity [13] was “Active”, the Activity [14] was “Active” and the Activity [15] was “Dose-dependent-effect”. For the same compound, the inhibition [16] was “inactive”, the inhibition [17] was “inactive” and the Activity [18] was “Active”. For the same compound, the Activity [19] was “Active”, the Activity [20] was “Active” and the Activity [21] was “Active”. The Activity [22] was “Active”.
